Test results published in patent US7148240B2, “Aminoalkoxybenzoyl-benzofuran or benzothiophene derivatives, method for preparing same and compositions containing same” (Sanofi-Aventis, priority 2000, dated 2006).

| SMILES | melting point [°C] |
| --- | --- |
| CCCCc1oc2cc(C)c(C(=O)OC)cc2c1C(=O)c1ccc(OCCCN2CCCCC2)cc1.Cl | 181 to 183 |
| CCCCc1oc2cccc(C(=O)OC)c2c1C(=O)c1ccc(OCCCN2CCCCC2)cc1.O=C(O)C(=O)O [Example 31, Methyl 2-butyl-3-[4-(3-(1-piperidinyl)propoxy]benzoyl]-1-benzofuran-4-carboxylate oxalate] | 160 |
